One block for each substance: values may come before it. Non-standard residues stand in square brackets, D forms with d. No end group written: not given here. pT = C[C@@H](OP(=O)(O)O)[C@H](N)C(=O)O
Tests used:
PP1γ [1] = biological target: T1, PP1γ (Homo sapiens, UniProt P36873); assay: MRBLE:Pep concentration-dependent PP1 binding to bead-bound RVxF peptides; conditions: bead-bound peptide, PP1 0-2,000 nM with anti-PP1 and Alexa 647 secondary antibody, 24 h at 4°C, 50 mM Tris pH 7.5, 150 mM NaCl, 0.1% TWEEN 20; median and SD across experimental replicates (n = 3); read-out: Kd, MRBLE-pep (Langmuir isotherm fit)
T1 construct: His; made in house; host or cells: E. coli BL21(DE3)
T1 sequence (P36873 whole entry): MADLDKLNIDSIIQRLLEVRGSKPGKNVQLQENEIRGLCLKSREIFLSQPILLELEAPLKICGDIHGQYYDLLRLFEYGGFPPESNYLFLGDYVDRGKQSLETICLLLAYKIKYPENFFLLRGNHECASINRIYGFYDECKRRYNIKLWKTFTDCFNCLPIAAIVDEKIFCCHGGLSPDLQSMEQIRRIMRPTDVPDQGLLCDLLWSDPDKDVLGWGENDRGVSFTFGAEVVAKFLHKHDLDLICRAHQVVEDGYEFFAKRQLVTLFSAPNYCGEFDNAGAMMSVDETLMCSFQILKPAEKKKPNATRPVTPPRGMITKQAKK
Procedure: After incubating bead‐bound peptide libraries with PP1, an unlabeled anti‐PP1 primary antibody, and an Alexa 647‐labeled secondary antibody, we washed beads and imaged again in both lanthanide and fluorescence channels to identify peptides and quantify the amount of PP1 bound (Fig 5A). Repeating these experiments over eight different PP1 concentrations enabled acquisition of concentration‐dependent binding curves; fitting the mean intensity of all beads with a given code at different concentrations of PP1γ and fitting to a Langmuir isotherm made it possible to quantify absolute affinities (Figs 5B and Appendix Fig S11).
PP1 concentration‐dependent binding to peptides on MRBLEs was done as described previously (Hein et al, [2021a]). In short, ~ 700 beads per code were mixed in and blocked in 700 μL PBS‐T with 5% BSA. PP1 (2 μM) was preincubated in binding buffer (50 mM Tris pH = 7.5, 150 mM NaCl, and 0.1% TWEEN 20) with 1 μM primary (a‐PPP1CC rabbit polyclonal, Bethyl A300‐906A) and 1 μM goat anti‐rabbit IgG Alexa Fluor 647 (Thermo Fischer, A‐21245). […]
We then computed the mean y max value across all of these peptides and refit concentration‐dependent binding curves for all peptide sequences to the Langmuir isotherm equation using this experimentally determined y max value for all peptide sequences and fitting only the K d term. […]

PP1γ [2] = biological target: T1, PP1γ; assay: ITC of RVxF model peptides with PP1γ; type: binding; conditions: peptide ~450 μM titrated into PP1γ ~35 μM, 25°C, 50 mM sodium phosphate, 150 mM NaCl, 0.5 mM TCEP, pH 7.5, single-site model
Procedure: Prior to ITC experiments, both the protein and the peptides were extensively dialyzed against 50 mM sodium phosphate, 150 mM NaCl, and 0.5 mM TCEP, pH 7.5. All ITC experiments were performed on an Auto‐iTC200 instrument (Microcal, Malvern Instruments Ltd.) at 25°C. Both peptide and PP1γ concentrations were determined using a spectrometer by measuring the absorbance at 280 nm and applying values for the extinction coefficients computed from the corresponding sequences by the ProtParam program (http://web.expasy.org/protparam/). The peptides at approximately 450 μM concentration were loaded into the syringe and titrated into the calorimetric cell containing the PP1γ at ~ 35 μM. The reference cell was filled with distilled water. In all assays, the titration sequence consisted of a single 0.4 μl injection followed by 19 injections, 2 μl each, with 150 s spacing between injections to ensure that the thermal power returns to the baseline before the next injection. The stirring speed was 750 rpm. Control experiments with the peptides injected in the sample cell filled with buffer were carried out under the same experimental conditions. […] The heats per injection normalized per mole of injectant versus the molar ratio [peptide]/[PP1γ] were fitted to a single‐site model. Data were analyzed with MicroCal PEAQ‐ITC (version 1.1.0.1262) analysis software (Malvern Instruments Ltd.).

PP2A‐B55α = assay: Phosphate release assay (PiColorLock / malachite green) with PP2A-B55; type: biochemical, human; conditions: B55 WT, peptide 120 μM, 80 ng phosphatase, 20 min 30°C
Procedure: PP2A‐B55α holoenzymes were purified from HeLa cells stably expressing FLAG‐tagged B55α as previously described (Kruse et al, [2020]).
In vitro phosphatase assays were performed with E. coli–expressed PP1γ or PP2A‐B55α purified from HeLa cell (ATCC, RRID CVCL_0030) extracts as described previously. […] The PiColorLock inorganic phosphate detection kit (abcam) was used to detect the amount of phosphate released from the phosphorylated peptides.

Venus-PP1 = assay: Affinity purification (pulldown) of YFP/Venus-PP1 from mitotic cells, label-free LC-MS/MS; type: binding, human
Source text: (§1) We defined interactomes of PP1γ and B55α during mitosis using affinity purification of YFP‐tagged subunits and also proximity‐dependent ligation using miniTurbo to capture interactions at mitotic exit (Appendix Fig S8) (Branon et al, [2018]; Sears et al, [2019]). […] These identified proteins can constitute both regulators and substrates. […] To understand how these protein interactions might shape dephosphorylation, we first aimed at generating interactome networks and overlay regulated sites. We integrated interactomes and information from the STRING database (Szklarczyk et al, [2023]) with our regulated phosphorylation sites to generate a network of complexes and dephosphorylation sites (Fig 4C and Appendix Fig S9A). For PP1, we also integrated information on known and predicted RVxF motifs (Smith et al, [2019]). […] As an example, CASC5 (KNL1) could scaffold PP1 dephosphorylation of CENPC S261, a phosphorylation site in a nuclear localization sequence. In agreement with previous work, PP2A‐B55 regulated dephosphorylation of several nucleoporins at mitotic exit consistent with Nup153 and TPR being present in the interactomes (Cundell et al, [2016]).
(§2) PP1 and B55 cDNAs were cloned into modified versions of pcDNA5/FRT/TO (Invitrogen) to make N‐terminal fusions to YFP, BioID, or TurboID. Stable cell lines were generated into HeLa/FRT/TRex cells (kind gift from S. Taylor), and for YFP affinity, purification cells were synchronized with thymidine and released into nocodazole‐containing media to arrest them in mitosis. Cells were resuspended in lysis buffer (50 mM NaCl, 50 mM Tris 7,4, 1 mM EDTA, 0.1% NP40, 1 mM DTT, and protease inhibitor cocktail), and following sonication, the lysate was clarified by centrifugation. Cell lysate was incubated with GFP‐Trap beads (Chromotek) for 1 h, washed 3 × 1 ml with lysis buffer, and resuspended in SDS–PAGE loading buffer.
(§3) The Q‐Exactive Plus was set to perform an Orbitrap MS1 scan (R = 70 K; AGC target = 1e6) from 350 to 1,500 m/z, followed by HCD MS2 spectra on the 10 most abundant precursor ions detected by Orbitrap scanning (R = 17.5 K; AGC target = 1e5; max ion time = 50 ms) before repeating the cycle. Precursor ions were isolated for HCD by quadrupole isolation at width = 1 m/z and HCD fragmentation at 26 normalized collision energy (NCE). Charge state 2, 3, and 4 ions were selected for MS2. Precursor ions were added to a dynamic exclusion list ± 20 ppm for 15 s. […] Static modifications included carbamidomethylcysteine and variable modifications included oxidized methionine. […] Missing values were imputed from a normal distribution in Perseus to enable statistical analysis and visualization by volcano plot (Tyanova et al, [2016]). Statistical analysis was carried out in Perseus by two‐tailed Student's t‐test.

Venus-B55 = assay: Affinity purification (pulldown) of YFP/Venus-B55 from mitotic cells, label-free LC-MS/MS; type: binding, human
Source text: as §1, §2, §3

- Kd (PP1γ [1]): 3400 ± 700 nM
Substance: AKNSRVTFSEDDEII

- Kd (PP1γ [2]): 190 ± 10 nM
Substance: AKNSRVTFSEDDEIW

Substance: INCENP WT: phosphorylated INCENP 53-67 peptide (T59), wild type (PELMPK[pT]PSQKNRRK; UniProt Q9NQS7 53-67, looked up, fragment)
- phosphate released from peptide by PP2A-B55 (in vitro dephosphorylation assay, Fig 3B) (PP2A‐B55α; 50 mM Tris pH 7.4, 1 mM MnCl2, 150 mM NaCl, technical repeat 1): 0,806
- phosphate released from peptide by PP2A-B55 (in vitro dephosphorylation assay, Fig 3B) (PP2A‐B55α; technical repeat 2): 0,858
- phosphate released from peptide by PP2A-B55 (in vitro dephosphorylation assay, Fig 3B) (PP2A‐B55α; technical repeat 3): 0,812

Substance: TOP2A_HUMAN
- B55 or PP1? (Venus-PP1; assignment of the co-purified protein as interactor of Venus-B55 and/or Venus-PP1 (both pulldowns)): B55/PP1
- log2 ratio [Venus-PP1/Venus] (Venus-PP1; enrichment in Venus-PP1 pulldown over Venus control, from 3 replicates each): 4.66
- log2 IBAQ [Venus-PP1 1] (Venus-PP1; pulldown of Venus-PP1 from mitotic cells, label-free LC-MS/MS, log2 IBAQ of co-purified protein, replicate 1): 19.15
- log2 IBAQ [Venus-PP1 2] (Venus-PP1; pulldown of Venus-PP1 from mitotic cells, label-free LC-MS/MS, log2 IBAQ of co-purified protein, replicate 2): 19.33
- log2 IBAQ [Venus-PP1 3] (Venus-PP1; pulldown of Venus-PP1 from mitotic cells, label-free LC-MS/MS, log2 IBAQ of co-purified protein, replicate 3): 21.02
- log2 ratio [Venus-B55/Venus] (Venus-B55; enrichment in Venus-B55 pulldown over Venus control, from 3 replicates each): 1.41
- log2 IBAQ [Venus-B55 1] (Venus-B55; pulldown of Venus-B55 from mitotic cells, label-free LC-MS/MS, log2 IBAQ of co-purified protein, replicate 1): 16.03
- log2 IBAQ [Venus-B55 2] (Venus-B55; pulldown of Venus-B55 from mitotic cells, label-free LC-MS/MS, log2 IBAQ of co-purified protein, replicate 2): 16.59
- log2 IBAQ [Venus-B55 3] (Venus-B55; pulldown of Venus-B55 from mitotic cells, label-free LC-MS/MS, log2 IBAQ of co-purified protein, replicate 3): 15.37
